Assay results as given in US20250197864A1, “LNCRNA TRANSCRIPTS IN MELANOMAGENESIS” (The Regents of the University of California, priority 2021, published 2025).

Tested on: gene expression in D04 melanoma cells
Assay: RNA-Seq differential expression analysis (DESeq2)
Format: cell-based, human
Procedure: Total RNA was isolated using the RNeasy mini Kit (QIAGEN) following the manufacturer's protocol. Quality check for extracted RNA was done using 2100 Bioanalyzer (Agilent Technologies, USA) or Tapestation System (Agilent Technologies, USA). […] For samples used for identification of MAPK-responsive lncRNAs, paired-end, 101-bp sequencing was performed by Centrillion Genomic Services (Centrillion Biosciences, USA) on an Illumina HiSeq 2000. For DE gene analysis of ASO-transfected D04 samples, paired-end, 2×150-bp sequencing was performed by Genewiz (USA) on a Illumina HiSeq.
Sequence reads were aligned to the human genome (hg19) using TopHat (Version 2.0.11).
Differential expression (DE) analysis was done using DESeq2. Differentially expressed genes were defined by more than 1.5-fold changes (log 2 >0.58 or <−0.58) in expression with FDR<0.05. GO term analysis was done using DAVID Functional Annotation Clustering analysis.
To examine the biomolecular changes upon TRASH-inhibition in melanoma, D04 cells were treated with TRASH-ASOs (SEQ ID NO:15) and Control-ASOs and RNA was extracted and used for RNA-Seq. […] These GO terms consisted of genes encoding growth factors, tyrosine kinases, G protein coupled receptor subunits, and collagen subunits. Scatter plot diagram showing differential gene expression after TRASH-ASO treatment compared to Control-ASO treatment. (cut-off for significance was adjusted p-value <0.05). Data was obtained from RNA-Seq of D04 melanoma cells, treatment period was three days. (FIG. 5c)

With “GACTGGAGATAATTAA (gapmer, pattern not given here) [SEQ ID NO: 15, GapmeR ASO targeting AC004540.4 (TRASH), exon region of both isoforms; used for in vitro experiments]” the “log2FoldChange AC010327.3” value (ENSG00000267577, up-regulated list) was 1.04, the “log2FoldChange CARD8-AS1” value (ENSG00000268001, up-regulated list) was 0.7573 and the “log2FoldChange AC005261.3” value (ENSG00000268713, up-regulated list) was 0.7391. The “log2FoldChange AL513477.1” value (ENSG00000269896, up-regulated list) was 1.066, the “log2FoldChange AL606834.1” value (ENSG00000269906, up-regulated list) was 0.6043 and the “log2FoldChange ZNF559-ZNF177” value (ENSG00000270011, up-regulated list) was 0.8965. The “log2FoldChange AC112220.2” value (ENSG00000271020, up-regulated list) was 0.8814, the “log2FoldChange AC112220.4” value (ENSG00000271643, up-regulated list) was 0.8013 and the “log2FoldChange AC004890.3” value (ENSG00000271664, up-regulated list) was 0.9879. The “log2FoldChange AL365181.3” value (ENSG00000272405, up-regulated list) was 1.112, the “log2FoldChange AL365203.2” value (ENSG00000273038, up-regulated list) was 0.6423 and the “log2FoldChange AC037198.1” value (ENSG00000276107, up-regulated list) was 0.6896. For the same sequence, the “log2FoldChange AC245041.2” value (ENSG00000276850, up-regulated list) was 1.06, the “log2FoldChange ENSG00000279184 (Gene.name NA)” value (ENSG00000279184, up-regulated list) was 0.592 and the “log2FoldChange AC005261.5” value (ENSG00000279541, up-regulated list) was 0.6302. The “log2FoldChange AC104581.4” value (ENSG00000280046, up-regulated list) was 0.8564, the “log2FoldChange UCKL1-AS1” value (ENSG00000280213, up-regulated list) was 0.6201 and the “log2FoldChange LINC01173” value (ENSG00000280744, up-regulated list) was 0.9254. The “log2FoldChange AC139493.2” value (ENSG00000283235, up-regulated list) was 0.8882, the log2FoldChange (EPHA3 (ENSG00000044524)) was −0.647 and the log2FoldChange (ETS2 (ENSG00000157557)) was 1.279. It also gave a log2FoldChange (EVI2A (ENSG00000126860)) of 1.514, a log2FoldChange (EXOC3L2 (ENSG00000283632)) of −0.6947 and a log2FoldChange (FAM129A (ENSG00000135842)) of −0.6591. For the same sequence, the log2FoldChange (FAM172BP (ENSG00000175841)) was 2.273, the log2FoldChange (FAM180A (ENSG00000189320)) was 2.047 and the log2FoldChange (FAM198B-AS1 (ENSG00000248429)) was −0.6307. For the same sequence, the log2FoldChange (FBXO2 (ENSG00000116661)) was −0.638, the log2FoldChange (FBXO9 (ENSG00000112146)) was −0.5825 and the log2FoldChange (FBXO40 (ENSG00000163833)) was 1.589. For the same sequence, the log2FoldChange (FGF1 (ENSG00000113578)) was −0.5817, the log2FoldChange (FHDC1 (ENSG00000137460)) was −0.7072 and the log2FoldChange (FOSB (ENSG00000125740)) was 2.191. For the same sequence, the log2FoldChange (FRK (ENSG00000111816)) was −0.6911, the log2FoldChange (FRRS1 (ENSG00000156869)) was −0.5906 and the log2FoldChange (FYN (ENSG00000010810)) was −0.6273. It also gave a log2FoldChange (GABRA3 (ENSG00000011677)) of −0.5841, a log2FoldChange (GAPDHP33 (ENSG00000240244)) of 1.514 and a log2FoldChange (GAREM1 (ENSG00000141441)) of −0.6261. For the same sequence, the log2FoldChange (GAS1 (ENSG00000180447)) was −0.6542, the log2FoldChange (GAS7 (ENSG00000007237)) was −0.5864 and the log2FoldChange (GGT5 (ENSG00000099998)) was −0.6741. The log2FoldChange (GNG2 (ENSG00000186469)) was −0.6003, the log2FoldChange (GNGT2 (ENSG00000167083)) was 1.241 and the log2FoldChange (GPR162 (ENSG00000250510)) was −0.5935. It also gave a log2FoldChange (GPRIN3 (ENSG00000185477)) of −0.66, a log2FoldChange (GSG1 (ENSG00000111305)) of 2.332 and a log2FoldChange (H2BFWT (ENSG00000123569)) of 2.336. It also gave a log2FoldChange (HDAC2-AS2 (ENSG00000228624)) of 1.256, a log2FoldChange (HDAC4 (ENSG00000068024)) of −0.5923 and a log2FoldChange (HEY1 (ENSG00000164683)) of −0.6645. The log2FoldChange (HHIPL2 (ENSG00000143512)) was −0.6841, the log2FoldChange (HID1 (ENSG00000167861)) was 1.325 and the log2FoldChange (HLA-DMA (ENSG00000204257)) was −0.582. It also gave a log2FoldChange (HLA-DMB (ENSG00000242574)) of −0.6646, a log2FoldChange (HLA-DPB1 (ENSG00000223865)) of −0.696 and a log2FoldChange (HLA-DRA (ENSG00000204287)) of −0.641. The log2FoldChange (HLA-V (ENSG00000181126)) was 1.398, the log2FoldChange (HS6ST2 (ENSG00000171004)) was −0.588 and the log2FoldChange (HSD3B1 (ENSG00000203857)) was −0.6356. It also gave a log2FoldChange (HSPA2 (ENSG00000126803)) of −0.6741, a log2FoldChange (IFI27 (ENSG00000165949)) of −0.6194 and a log2FoldChange (IFI27L1 (ENSG00000165948)) of −0.5945. The log2FoldChange (IGFBP5 (ENSG00000115461)) was −0.631, the log2FoldChange (IGSF11 (ENSG00000144847)) was −0.5994 and the log2FoldChange (IL24 (ENSG00000162892)) was 2.412. The log2FoldChange (IMMP2L (ENSG00000184903)) was −0.6662, the log2FoldChange (ITGB2 (ENSG00000160255)) was 1.646 and the log2FoldChange (KCNK1 (ENSG00000135750)) was 4.668. For the same sequence, the log2FoldChange (KCNQ5 (ENSG00000185760)) was −0.6919, the log2FoldChange (KIAA0319L (ENSG00000142687)) was −0.5992 and the log2FoldChange (KIF1A (ENSG00000130294)) was 6.604. The log2FoldChange (KIRREL1 (ENSG00000183853)) was −0.6846, the log2FoldChange (KISS1 (ENSG00000170498)) was 1.679 and the log2FoldChange (KITLG (ENSG00000049130)) was −0.5925. The log2FoldChange (KLK2 (ENSG00000167751)) was 2.321, the log2FoldChange (KRT15 (ENSG00000171346)) was 1.605 and the log2FoldChange (KRT34 (ENSG00000131737)) was 3.32. The log2FoldChange (KRT73-AS1 (ENSG00000257495)) was 2.888, the log2FoldChange (KRT75 (ENSG00000170454)) was 1.915 and the log2FoldChange (LBH (ENSG00000213626)) was −0.6972. It also gave a log2FoldChange (LCK (ENSG00000182866)) of 1.307, a log2FoldChange (LCN2 (ENSG00000148346)) of 1.647 and a log2FoldChange (LDHD (ENSG00000166816)) of 1.623. The log2FoldChange (LDLR (ENSG00000130164)) was −0.588, the log2FoldChange (LIFR (ENSG00000113594)) was −0.5862 and the log2FoldChange (LINC00520 (ENSG00000258791)) was 2.38.
